The structures appear in SMILES notation. Read-outs that look alike come from different tables or passages of the source.

In series [1] the test system is human pancreatic cancer cells (PANC-1). Description: cells.
From the text: In addition, for the portion of the living tissue, the human pancreatic cancer cells (PANC-1) are used instead of the neural cells as an example for illustration. Furthermore, the living pancreatic cancer cells are also placed in the culture solution of petri dish in order to perform the heat treatment method of the present invention.
In addition, for the portion of the living tissue, the human pancreatic cancer cells (PANC-1) are used as an example for illustration. Furthermore, the living pancreatic cancer cells are also placed in the culture solution of petri dish in order to perform the heat treatment method of the present invention.
The control group refers to the comparison group without the heat treatment according to the method of the present invention.
The test system of series [2] is human neural cells (SH-SY5Y). In words: cell viability of human neural cells (SH-SY5Y) with/without cyclic heat treatment. The settings on record: hydrogen peroxide processing.

Regarding `O=C(/C=C/c1ccc(O)c(O)c1)O[C@@H]1C[C@](O)(C(=O)O)C[C@@H](O)[C@H]1O` [CGA, chlorogenic acid], the viability at 200 µM in series [1] (PANC-1, read-out: cell viability, PANC-1, 200 μM CGA, ten times of heat treatment, 43.5° C. / approximately 36° C. (FIG. 10B)) was 53%; in series [1] (PANC-1, read-out: cell viability, PANC-1, 200 μM CGA, without the heat treatment (FIG. 10B)), 88%.

Consider `Nc1ccn([C@@H]2O[C@H](CO)[C@@H](O)C2(F)F)c(=O)n1` [Gem, gemcitabine], for which the viability at 5 µM in series [1] (PANC-1, read-out: cell viability, PANC-1, 5 μM Gem, ten times of heat treatment, 43.5° C. / approximately 36° C. (FIG. 11)) is 55%; in series [1] (PANC-1, read-out: cell viability, PANC-1, 5 μM Gem, without the heat treatment (FIG. 11)), 90%.

For `OO` [hydrogen peroxide], the cell viability (as a rule, a per cent measure of how many cells are alive, often set against a control) in series [2] (control group without the heat treatment (FIG. 5A, 5B)) was found to be 55%; in series [2] (eight times of heat treatment, max 40.9° C. / min 39.4° C. (FIG. 5A)) it was 70%; in series [2] (eight times of heat treatment, max 42.0° C. / min 40.3° C. (FIG. 5B)) it was 82%.

Values taken from US11753634B2, “Method and apparatus for applying heat to living tissue” (NATIONAL TAIWAN UNIVERSITY, priority 2019, dated 2023).
